Measurements reported in ChEMBL document CHEMBL1201862, “PubChem BioAssay data set” (2004).
Activity calls are given as the source filed them.

Assays:
Cytochrome P450 3A4 = Cytochrome P450 3A4 (Homo sapiens, UniProt P08684);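 note: CYP3A4 tested as one member of a cytochrome P450 panel screen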
Cytochrome P450 2C9 = Cytochrome P450 2C9 (Homo sapiens, UniProt P11712)
Cytochrome P450 2C19 = Cytochrome P450 2C19 (Homo sapiens, UniProt P33261); experiment: Cytochrome panel assay with activity outcomes. Panel member name: p450-cyp2c19 Compounds with AC50 equal or less than 10 uM are considered active; type: functional
Sequence of Cytochrome P450 2C19 (P33261 whole entry): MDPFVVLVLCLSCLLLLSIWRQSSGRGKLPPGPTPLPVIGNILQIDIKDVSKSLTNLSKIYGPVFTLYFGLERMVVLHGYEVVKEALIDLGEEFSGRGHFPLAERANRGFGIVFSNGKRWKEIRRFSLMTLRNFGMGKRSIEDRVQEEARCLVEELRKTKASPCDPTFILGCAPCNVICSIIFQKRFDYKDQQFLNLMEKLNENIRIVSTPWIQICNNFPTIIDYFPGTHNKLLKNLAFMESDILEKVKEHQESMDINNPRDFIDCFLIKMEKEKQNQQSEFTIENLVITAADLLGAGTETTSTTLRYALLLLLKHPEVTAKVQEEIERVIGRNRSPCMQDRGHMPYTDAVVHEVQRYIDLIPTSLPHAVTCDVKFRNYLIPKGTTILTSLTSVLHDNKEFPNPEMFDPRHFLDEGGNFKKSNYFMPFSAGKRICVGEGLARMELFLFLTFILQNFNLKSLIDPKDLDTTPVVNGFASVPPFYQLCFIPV

Cytochrome P450 1A2 = target: T1, Cytochrome P450 1A2 (Homo sapiens, UniProt P05177);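 note: PubChem cytochrome P450 panel assay, CYP1A2 panel member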
T1 sequence (P05177 whole entry): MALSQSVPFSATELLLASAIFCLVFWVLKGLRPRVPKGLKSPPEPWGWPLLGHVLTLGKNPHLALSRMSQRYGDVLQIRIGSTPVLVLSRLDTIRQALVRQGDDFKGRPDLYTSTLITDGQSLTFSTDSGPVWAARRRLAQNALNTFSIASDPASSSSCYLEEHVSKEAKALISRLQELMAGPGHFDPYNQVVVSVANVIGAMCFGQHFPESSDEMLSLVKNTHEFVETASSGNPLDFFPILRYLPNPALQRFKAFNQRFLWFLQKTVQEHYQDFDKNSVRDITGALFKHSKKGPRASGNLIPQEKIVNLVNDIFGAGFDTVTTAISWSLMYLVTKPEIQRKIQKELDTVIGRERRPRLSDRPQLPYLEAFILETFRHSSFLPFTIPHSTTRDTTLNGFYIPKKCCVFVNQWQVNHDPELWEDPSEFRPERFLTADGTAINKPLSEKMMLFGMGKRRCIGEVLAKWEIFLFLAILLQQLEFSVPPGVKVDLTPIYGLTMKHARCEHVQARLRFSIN

[1] = inhibitors of intracellular T. cruzi replication, confirmation, NIH3T3 host cells, beta-gal luminescence (AID 2044); type: functional, cell-based;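 note: intracellular parasites grown in NIH/3T3 mouse fibroblasts as host cells; luminescent beta-galactosidase reporter signal from transgenic T. cruzi replicating inside host cells; inhibitors lower the luminescence signal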
[2] = cytotoxicity toward NIH3T3 fibroblasts, dose response, counter-screen, cell-based, ATP luminescence, mouse fibroblasts (AID 2010); type: functional;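 note: cells exposed to compound for about 90 hours before reading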
Streptococcus = experiment: Group A Streptococcus viability loss, dose response, counter-screen for streptokinase expression inhibitor project, luminescence, BacTiterGlo (AID 1915); type: functional, organism-based;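 note: potency for reduction of bacterial viability or growth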
[3] = tested on: Streptococcus sp. 'group A'; experiment: growth inhibition of control SK(-) GAS strain, dose response, counter-screen for streptokinase expression inhibitor project, luminescence, kanamycin, BacTiterGlo, confirmation (AID 1900); type: functional, organism-based

Sequence of Cytochrome P450 2C9 (P11712 whole entry): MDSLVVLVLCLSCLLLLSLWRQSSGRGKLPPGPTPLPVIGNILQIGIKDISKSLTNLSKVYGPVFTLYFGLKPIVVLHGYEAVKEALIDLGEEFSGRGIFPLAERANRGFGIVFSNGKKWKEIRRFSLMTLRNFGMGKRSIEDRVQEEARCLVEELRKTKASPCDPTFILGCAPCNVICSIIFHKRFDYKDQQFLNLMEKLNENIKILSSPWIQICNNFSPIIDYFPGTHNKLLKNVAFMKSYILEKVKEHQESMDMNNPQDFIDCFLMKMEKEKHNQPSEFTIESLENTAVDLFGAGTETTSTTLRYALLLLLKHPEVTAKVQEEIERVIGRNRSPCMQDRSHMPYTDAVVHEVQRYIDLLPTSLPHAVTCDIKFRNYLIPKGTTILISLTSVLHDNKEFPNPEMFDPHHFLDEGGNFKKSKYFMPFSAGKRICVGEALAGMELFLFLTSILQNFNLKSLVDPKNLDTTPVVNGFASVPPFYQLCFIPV
Sequence of Cytochrome P450 3A4 (P08684 whole entry): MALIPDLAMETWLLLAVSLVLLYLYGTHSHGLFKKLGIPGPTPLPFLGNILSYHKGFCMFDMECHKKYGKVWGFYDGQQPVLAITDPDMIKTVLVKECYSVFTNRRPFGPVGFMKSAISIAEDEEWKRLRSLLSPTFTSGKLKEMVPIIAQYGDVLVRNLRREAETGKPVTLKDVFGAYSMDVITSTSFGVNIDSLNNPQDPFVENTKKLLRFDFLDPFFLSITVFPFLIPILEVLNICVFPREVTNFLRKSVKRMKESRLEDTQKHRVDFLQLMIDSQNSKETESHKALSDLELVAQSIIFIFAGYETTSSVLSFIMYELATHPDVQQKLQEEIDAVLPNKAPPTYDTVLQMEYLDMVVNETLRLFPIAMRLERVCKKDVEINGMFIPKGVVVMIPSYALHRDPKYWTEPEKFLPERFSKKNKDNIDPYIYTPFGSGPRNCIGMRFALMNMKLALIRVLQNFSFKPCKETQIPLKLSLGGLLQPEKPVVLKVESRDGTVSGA

C[N+](C)(CCCCCC[N+](C)(C)CCCN1C(=O)c2cccc3cccc(c23)C1=O)CCCN1C(=O)c2cccc3cccc(c23)C1=O
AC50 (Cytochrome P450 3A4): 2.51 µM (inconclusive)

Cc1ccc(OCCNC(=O)c2cncc(Br)c2)cc1C
AC50 (Cytochrome P450 2C9): 25.1 µM (inconclusive)

COCCNc1nc(-c2ccoc2)nc2ccccc12
AC50 (Cytochrome P450 3A4): 12.6 µM (inconclusive)

Cc1cccc(-c2c3c(=O)n(C)c(=O)n(C)c3cn2C2CCCCC2)c1
AC50 (Cytochrome P450 2C19): inconclusive

O=S(=O)(c1ccccc1)N1CCC2(CCCN(c3ncccn3)C2)CC1
AC50 (Cytochrome P450 1A2): 15.8 µM (inconclusive)

CC(C)C[C@H]1C(=O)N2CCC[C@@H]2[C@@]2(O)O[C@](NC(=O)[C@@H]3C=C4c5cccc6[nH]cc(c56)C[C@@H]4N(C)C3)(C(C)C)C(=O)N12
AC50 (Cytochrome P450 1A2): 12.6 µM (inconclusive)

Cc1ccc(CN(C(=O)c2cc3ccccc3oc2=O)C2CCS(=O)(=O)C2)cc1 (configuration not stated)
AC50 (Cytochrome P450 1A2): 31.6 µM (inconclusive)
AC50 (Cytochrome P450 3A4): 4.47 µM (inconclusive)

O=C(Nc1ccc2ccccc2c1)c1onc2c1CCCC2
AC50 (Cytochrome P450 2C19; read-out: AC50): 15.8 µM (inconclusive)

Fc1ccc(C2=Nn3c(Cc4ccccc4F)nnc3SC2)cc1
AC50 (Cytochrome P450 3A4): 12.6 µM (inconclusive)
AC50 (Cytochrome P450 2C9): 2 µM (inconclusive)

COc1ccc(-n2c(=O)c(CCc3ccccc3)nc3cnc(N4CCN(C)CC4)nc32)cc1
AC50 (Cytochrome P450 3A4): 12.6 µM (inconclusive)

CCN(CC)CCN(C(=O)c1ccc2c(c1)CCCC2)c1nc2ccc(F)cc2s1
EC50 [1]: 0.818 µM (active)
EC50 [2]: > 60 µM (not active)

CCCCN1C(=O)/C(=C\c2ccco2)C(=O)N(CCc2ccccc2)C1=O
AC50 (Cytochrome P450 1A2): 28.2 µM (inconclusive)
AC50 (Cytochrome P450 3A4): 12.6 µM (inconclusive)

CC(=O)N1CCc2cc(Br)cc(S(=O)(=O)N3CCN(C(=O)c4ccco4)CC3)c21
AC50 (Cytochrome P450 3A4): 15.8 µM (inconclusive)

O=C(CC1C(=O)NCCN1C(=S)Nc1ccccc1)Nc1ccc2c(c1)OCCO2 (configuration not stated)
AC50 (Cytochrome P450 3A4): 25.1 µM (inconclusive)
AC50 (Cytochrome P450 2C9): 35.5 µM (inconclusive)

CCc1ccc(C(=O)N2CCC(c3nc4ccccc4s3)CC2)cc1
AC50 (Cytochrome P450 1A2): 17.8 µM (inconclusive)
AC50 (Cytochrome P450 3A4): 39.8 µM (inconclusive)

O=C1CC(SC(=Nc2ccccc2)Nc2ccccc2)C(=O)N1c1ccc(Cl)c(Cl)c1 (configuration not stated)
EC50 [1]: 2.06 µM (active)
EC50 [2]: > 60 µM (inconclusive)

Cc1nc2ccccn2c1C(=O)C1=C(O)C(=O)N(CCCn2ccnc2)C1c1ccncc1 (configuration not stated)
AC50 (Cytochrome P450 2C9): 11.2 µM (inconclusive)

CCNc1nc(Sc2ccc(C)cc2)cc(C(F)(F)F)n1
AC50 (Cytochrome P450 3A4): 22.4 µM (inconclusive)

CC[C@H](Cc1c(I)cc(I)c(N)c1I)C(=O)O
AC50 (Cytochrome P450 2C9): 6.31 µM (inconclusive)

Cc1cc(=O)n2c3ccccc3n(CC(O)CN3CCCCC3)c2c1C#N (configuration not stated)
AC50 (Cytochrome P450 1A2): 15.8 µM (inconclusive)

CCOc1ccc(C(CC(=O)O)NC(=O)COc2ccccc2)cc1 (configuration not stated)
AC50 (Cytochrome P450 2C9): 39.8 µM (inconclusive)

CCOC(=O)C1CCCN(C/C=C/c2ccccc2[N+](=O)[O-])C1 (configuration not stated)
AC50 (Cytochrome P450 3A4): 25.1 µM (inconclusive)
AC50 (Cytochrome P450 2C9): 15.8 µM (inconclusive)

CCCCn1c(=O)c(C(=O)Nc2ccccn2)c(O)c2ccccc21
EC50 (Streptococcus): 19.2 µM (active)
EC50 [3]: 3.64 µM (active)

CC(C)NC(=O)N1CC[C@@]2(CCCN(S(=O)(=O)c3ccccc3)C2)C1
AC50 (Cytochrome P450 3A4): 20 µM (inconclusive)

O=C(Oc1ccccc1)N1CCC[C@@]2(CCN(C(c3ccccc3)c3ccccc3)C2)C1
AC50 (Cytochrome P450 1A2): 25.1 µM (inconclusive)

CCOc1ccc(-c2nnc3n2N=C(c2ccc(OC)cc2)CS3)cc1
AC50 (Cytochrome P450 2C9): 2.51 µM (inconclusive)

COc1ccc(/C=C/C(=O)NC(=S)NNC(=O)c2cc(OC)c(OC)c(OC)c2)cc1
EC50 (Streptococcus): 3.48 µM (active)
EC50 [3]: 1.38 µM (active)

Cc1cnc(CNc2ccnc(-c3ccc(N(C)C)cc3)n2)cn1
AC50 (Cytochrome P450 3A4): 10 µM (inconclusive)

CCOC(=O)N(c1ccccc1)P1(=S)OCCO1
AC50 (Cytochrome P450 2C9): 0.0355 µM (inconclusive)

COc1ccc(C(=O)C2CCCN(Cc3cccc4c3OCO4)C2)cc1OC (configuration not stated)
EC50 [1]: 0.576 µM (active)
EC50 [2]: 12.4 µM (active)

O=C(NC1CCCC1)c1cnn2c(C(F)(F)F)cc(-c3ccco3)nc12
AC50 (Cytochrome P450 2C9): 22.4 µM (inconclusive)

C[C@H]1C2=C3C(CC[C@H]4C(OCc5ccc(F)cc5C(F)(F)F)OC[C@](C)([C@@H]34)N(C(=O)OC(C)(C)C)C2)C2COC(=O)OCC21 (some centres not stated)
AC50 (Cytochrome P450 1A2): 6.31 µM (inconclusive)

O=c1c(-c2ccc(F)c(F)c2)nc2cncnc2n1Cc1ccccc1Cl
AC50 (Cytochrome P450 3A4): 12.6 µM (inconclusive)

Cc1cc(C)nc(NN2C(=O)/C(=C/c3ccccc3)SC2=S)n1
AC50 (Cytochrome P450 2C19): inconclusive

Cn1c(=O)c2c(nc(N3CCN(c4ccccn4)CC3)n2Cc2ccccc2Cl)n(C)c1=O
AC50 (Cytochrome P450 3A4): 1.26 µM (inconclusive)

CCOc1ccc2nc(N3CCCCCC3)sc2c1
AC50 (Cytochrome P450 3A4): 35.5 µM (inconclusive)
AC50 (Cytochrome P450 2C9): 12.6 µM (inconclusive)

O=C(c1cc(-c2cccs2)on1)N1CCN(c2ccc(F)cc2)CC1
AC50 (Cytochrome P450 3A4): 20 µM (inconclusive)

COC(=O)[C@@]1(Cc2ccc(F)cc2)[C@H]2c3cc(C(=O)N4CCCC4)n(CCc4ccc(OC)c(Br)c4)c3C[C@H]2CN1C(=O)c1ccccc1
AC50 (Cytochrome P450 1A2): 15.8 µM (inconclusive)

Cc1cc2ccccn2c1C(=O)c1nc(N2CCOCC2)ncc1Cl
AC50 (Cytochrome P450 3A4): 28.2 µM (inconclusive)
AC50 (Cytochrome P450 2C9): 39.8 µM (inconclusive)

O=c1c(-c2cccs2)nc2cnc(N3CCOCC3)nc2n1-c1ccccc1
AC50 (Cytochrome P450 3A4): 7.94 µM (inconclusive)
AC50 (Cytochrome P450 2C9): 10 µM (inconclusive)

COc1ccc(Nc2cc(=O)n(C3CCCCC3)c(=O)[nH]2)c(OC)c1
AC50 (Cytochrome P450 1A2): 31.6 µM (inconclusive)
AC50 (Cytochrome P450 2C9): 25.1 µM (inconclusive)

COC(=O)N1CCC2(CCCN(c3ccc(-c4ccccc4)cc3)C2)CC1
AC50 (Cytochrome P450 3A4): 39.8 µM (inconclusive)

CN(C)C(=O)c1ccc(-c2ccc3ncnc(NCCN4CCOCC4)c3c2)cc1
AC50 (Cytochrome P450 1A2): 25.1 µM (inconclusive)
AC50 (Cytochrome P450 3A4): 15.8 µM (inconclusive)

CC(C)(CS)C(=O)N1CCC[C@H]1C(=O)O
AC50 (Cytochrome P450 2C19; read-out: AC50): 15.8 µM (inconclusive)

CNCCC=C1c2ccccc2C=Cc2ccccc21
AC50 (Cytochrome P450 1A2): 6.31 µM (inconclusive)
AC50 (Cytochrome P450 3A4): 12.6 µM (inconclusive)

Cc1cnc2cc(Cl)ccc2c1SCC(=O)O
AC50 (Cytochrome P450 3A4): 3.98 µM (inconclusive)

COc1cc(OC)c(C2C(C(=O)Nc3ccc(C)cc3C)=C(C)Nc3ncnn32)cc1OC (configuration not stated)
AC50 (Cytochrome P450 2C9): 15.8 µM (inconclusive)

COc1cc2c(C(=O)NCc3ccc(C)o3)cn(CC(C)C)c(=O)c2cc1OC
AC50 (Cytochrome P450 1A2): 1.58 µM (inconclusive)
AC50 (Cytochrome P450 2C9): 10 µM (inconclusive)

Cc1nc2cnc(OCc3ccccc3)nc2n(CCC#N)c1=O
AC50 (Cytochrome P450 3A4): 3.98 µM (inconclusive)

COc1cccc(Nc2ncc3nc(CCc4ccccc4)c(=O)n(Cc4cccs4)c3n2)c1
AC50 (Cytochrome P450 1A2): 3.16 µM (inconclusive)
AC50 (Cytochrome P450 3A4): 6.31 µM (inconclusive)

O=C(c1csnn1)N1CCC2(CC1)CN(Cc1ccncc1)C2
AC50 (Cytochrome P450 3A4): 15.8 µM (inconclusive)

CCNc1ncc2nc(-c3ccccc3)c(=O)n(CCC#N)c2n1
AC50 (Cytochrome P450 3A4): 25.1 µM (inconclusive)

Cc1ccc(-n2ncc(N(C)C)c(Cl)c2=O)cc1
AC50 (Cytochrome P450 1A2): 14.1 µM (inconclusive)
AC50 (Cytochrome P450 3A4): 28.2 µM (inconclusive)

COc1ccccc1CNc1ncncc1-c1ccccc1C
AC50 (Cytochrome P450 3A4): 0.398 µM (inconclusive)

CCC(C)Nc1c([N+](=O)[O-])cc(C)cc1[N+](=O)[O-] (configuration not stated)
AC50 (Cytochrome P450 3A4): 25.1 µM (inconclusive)
AC50 (Cytochrome P450 2C9): 15.8 µM (inconclusive)

CCCCCCCCCCCCCCCCCCNC(=O)OC[C@@H](COP(=O)([O-])OCC[n+]1ccsc1)OC
AC50 (Cytochrome P450 2C9): 39.8 µM (inconclusive)

Cc1cccc2c(SCC(=O)NCC3CCCO3)nc(-c3ccc(F)cc3)nc12 (configuration not stated)
AC50 (Cytochrome P450 1A2): 0.447 µM (inconclusive)

Cc1nnc2ccccc2c1O
AC50 (Cytochrome P450 1A2): 0.398 µM (inconclusive)

CSc1cc2c(cc1C(F)(F)F)N(C(=O)Nc1cccnc1)CC2
AC50 (Cytochrome P450 3A4): 3.98 µM (inconclusive)

CO/C(O)=C1\C(C)=NC(C)=C([N+](=O)[O-])[C@H]1c1ccccc1C(F)(F)F
AC50 (Cytochrome P450 1A2): 31.6 µM (inconclusive)

C/C(=N\OC(=O)NC(C)C)c1sc(-c2ccccc2)nc1C
AC50 (Cytochrome P450 3A4): 25.1 µM (inconclusive)
AC50 (Cytochrome P450 2C9): 11.2 µM (inconclusive)

O=C(N/N=C\c1cccc(F)c1)c1ccc(Cn2cc(Br)c([N+](=O)[O-])n2)o1
EC50 [1]: 0.889 µM (active)
EC50 [2]: > 60 µM (not active)

Nc1c(S(=O)(=O)O)cc(Nc2cccc(S(N)(=O)=O)c2)c2c1C(=O)c1ccccc1C2=O
AC50 (Cytochrome P450 3A4): 7.94 µM (inconclusive)

CC(C)(C)NC[C@@H](O)COc1ccccc1C1CCCC1
AC50 (Cytochrome P450 1A2): 10 µM (inconclusive)
AC50 (Cytochrome P450 2C9): 12.6 µM (inconclusive)

CCOC(=O)CCC(=O)O[C@H]1[C@H](O[C@@H]2[C@@H](C)[C@H](O[C@H]3C[C@@](C)(OC)[C@@H](O)[C@H](C)O3)[C@@H](C)C(=O)O[C@H](CC)[C@@](C)(O)[C@H](O)[C@@H](C)C(=O)[C@H](C)C[C@@]2(C)O)O[C@H](C)C[C@@H]1N(C)C [ERYTHROMYCIN ETHYLSUCCINATE]
EC50 (Streptococcus): < 0.06 µM (active)
EC50 [3]: < 0.06 µM (active)

CCOc1ccc(Cc2nccc3cc(OCC)c(OCC)cc23)cc1OCC [ETHAVERINE]
AC50 (Cytochrome P450 1A2): 10 µM (inconclusive)

CN1CCN2c3ncccc3Cc3ccccc3C2C1 (configuration not stated) [MIRTAZAPINE]
AC50 (Cytochrome P450 1A2): 20 µM (inconclusive)
